# Molecular target: STAT6 (Homo sapiens (Human), UniProt P42226)
# Test: STAT6 degrader assay (HiBiT, HeLa LgBiT clone 4.14)
# Assay type: cell-based
# Conditions: HeLa LgBiT clone 4.14, 4-24 h; for DC50: geometric mean, given for compounds with >80% Emax, read-out: STAT6 degradation DC50; for Emax: read-out: STAT6 degradation Emax (%)
# Protocol: This was a HiBit based assay. A HeLa cell line stably transfected with a small protein, LgBit (Large Bit) was obtained from Promega. These cells express endogenous STAT6. A small 11 amino acid gene sequence (HiBiT) was inserted in the STAT6 gene using CRISPR technology. Once STAT6 protein is expressed in the cells, the HiBiT sequence will bind the LgBit in the cells resulting in a functional NanoBiT protein, giving a luminescent tag to STAT6, see FIG. 2.
# Single cell clones were prepared and the clone 4.14 was selected for the assay based on that clone showing high luminescence, high STAT6 phosphorylation upon stimulation with IL-4, and inhibition of luminescence when cells were treated with STAT6 siRNA.
# HeLa LgBiT clone 4.14 cells were suspended in DMEM with 10% FCS, 1% Pen/Strep, Na-pyrovate and Hygromycin B, at a concentration of 1.25*105 cells pr mL. 5000 cells were added pr well of a 384 well plate and 20 nL of compound was added by Echo® liquid handler. NN6394A (terfenadine, a toxic compound) was added to control wells at 50 μM concentration to establish the assay window. In these wells the cells are dead which equals 100% degradation of STAT6.
# After 4-24 h of incubation at 37° C. under 5% CO2/95% air, 5 μL substrate (Nano-GLO®) was added to the wells and the plates were centrifuged and incubated for 0.5 h.
# The luminescence in the wells as a measure of non-degraded STAT6 was measured in a plate reader (BMG Pherastar FSX). The measured DC50 (in nM) was determined.
# The dose-response curves Examples 3p1, 3e50, 3e17, and 3e51 are shown below (where percent degradation is plotted vs. test compound concentration in M on a log-scale).
# Chain of STAT6 (P42226 whole entry): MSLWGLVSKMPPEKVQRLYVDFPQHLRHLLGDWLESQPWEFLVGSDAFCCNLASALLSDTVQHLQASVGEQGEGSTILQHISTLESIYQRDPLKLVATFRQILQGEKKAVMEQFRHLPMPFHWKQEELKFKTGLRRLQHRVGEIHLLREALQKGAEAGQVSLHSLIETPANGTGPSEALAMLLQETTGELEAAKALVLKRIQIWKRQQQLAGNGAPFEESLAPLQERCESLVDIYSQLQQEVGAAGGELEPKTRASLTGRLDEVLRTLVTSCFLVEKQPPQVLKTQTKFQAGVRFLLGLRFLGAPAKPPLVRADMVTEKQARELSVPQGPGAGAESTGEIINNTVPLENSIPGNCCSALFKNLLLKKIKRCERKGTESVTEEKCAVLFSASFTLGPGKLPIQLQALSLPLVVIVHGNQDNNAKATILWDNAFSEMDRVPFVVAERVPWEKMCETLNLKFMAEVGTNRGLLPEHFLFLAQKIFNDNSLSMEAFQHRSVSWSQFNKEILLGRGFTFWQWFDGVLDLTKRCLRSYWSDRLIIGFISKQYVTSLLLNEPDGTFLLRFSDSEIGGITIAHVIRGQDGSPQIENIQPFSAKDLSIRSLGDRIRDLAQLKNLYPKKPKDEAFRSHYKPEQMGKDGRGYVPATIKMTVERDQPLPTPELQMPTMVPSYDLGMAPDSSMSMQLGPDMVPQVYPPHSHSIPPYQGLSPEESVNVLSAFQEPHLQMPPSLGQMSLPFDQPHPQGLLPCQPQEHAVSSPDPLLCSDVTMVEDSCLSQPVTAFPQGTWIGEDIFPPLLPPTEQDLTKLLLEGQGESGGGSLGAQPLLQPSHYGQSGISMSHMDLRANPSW
SMILES,DC50,Emax
"CNc1ccc(-c2ccnc3c2cc([C@H](C)N2CCC(c4ccc(C(=O)N5CCC(CN6CCN(Cc7ccc8c(c7)n(C)c(=O)n8C7CCC(=O)NC7=O)C[C@@H]6C)CC5)cc4)CC2)n3C)cn1 (stereo partly drawn) [Example 3h2, 3-(3-methyl-5-(((S)-3-methyl-4-((1-(4-(1-((S)-1-(1-methyl-4-(6-(methylamino)pyridin-3-yl)-1H-pyrrolo[2,3-b]pyridin-2-yl)ethyl)piperidin-4-yl)benzoyl)piperidin-4-yl)methyl)piperazin-1-yl)methyl)-2-oxo-2,3-dihydro-1H-benzo[d]imidazol-1-yl)piperidine-2,6-dione]",0.8 nM,
"CNc1ccc(-c2ccnc3c2cc([C@H](C)N2CCC(c4ccc(C(=O)N5CCC(CN6CCN(Cc7ccc8c(c7)n(C)c(=O)n8[C@H]7CCC(=O)NC7=O)C[C@@H]6C)CC5)cc4)CC2)n3C)cn1 [Example 3h4, (S)-3-(3-methyl-5-(((S)-3-methyl-4-((1-(4-(1-((S)-1-(1-methyl-4-(6-(methylamino)pyridin-3-yl)-1H-pyrrolo[2,3-b]pyridin-2-yl)ethyl)piperidin-4-yl)benzoyl)piperidin-4-yl)methyl)piperazin-1-yl)methyl)-2-oxo-2,3-dihydro-1H-benzo[d]imidazol-1-yl)piperidine-2,6-dione]",1 nM,
"CNc1ccc(-c2ccnc3c2cc([C@H](C)N2CC=C(c4c(C)cc(C(=O)N5CCC(CN6CCN(Cc7ccc8c(c7)n(C7CC7)c(=O)n8[C@@H]7CCC(=O)NC7=O)C[C@@H]6C)CC5)cc4F)CC2)n3C)cn1 [Example 3h7, (R)-3-(3-cyclopropyl-5-(((S)-4-((1-(3-fluoro-5-methyl-4-(1-((S)-1-(1-methyl-4-(6-(methylamino)pyridin-3-yl)-1H-pyrrolo[2,3-b]pyridin-2-yl)ethyl)-1,2,3,6-tetrahydropyridin-4-yl)benzoyl)piperidin-4-yl)methyl)-3-methylpiperazin-1-yl)methyl)-2-oxo-2,3-dihydro-1H-benzo[d]imidazol-1-yl)piperidine-2,6-dione]",1.4 nM,
"C[C@H]1CN(Cc2ccc3c(c2)n(C)c(=O)n3C2CCC(=O)NC2=O)CCN1CC1CCN(C(=O)c2ccc(N3CCN(Cc4cc5c(-c6ccc(N)nc6)ccnc5n4C)CC3)cc2)CC1 (stereo partly drawn) [Example 3h14, 3-(5-(((S)-4-((1-(4-(4-((4-(6-aminopyridin-3-yl)-1-methyl-1H-pyrrolo[2,3-b]pyridin-2-yl)methyl)piperazin-1-yl)benzoyl)piperidin-4-yl)methyl)-3-methylpiperazin-1-yl)methyl)-3-methyl-2-oxo-2,3-dihydro-1H-benzo[d]imidazol-1-yl)piperidine-2,6-dione]",1.1 nM,
"Cc1cc(C(=O)N2CCC(CN3CCN(Cc4ccc5c(c4)n(C4CC4)c(=O)n5C4CCC(=O)NC4=O)C[C@@H]3C)CC2)cc(F)c1C1=CCN([C@@H](C)c2cc3c(-c4ccc(N)nc4)ccnc3n2C)CC1 (stereo partly drawn) [Example 3h15, 3-(5-(((S)-4-((1-(4-(1-((S)-1-(4-(6-aminopyridin-3-yl)-1-methyl-1H-pyrrolo[2,3-b]pyridin-2-yl)ethyl)-1,2,3,6-tetrahydropyridin-4-yl)-3-fluoro-5-methylbenzoyl)piperidin-4-yl)methyl)-3-methyl-piperazin-1-yl)methyl)-3-cyclopropyl-2-oxo-2,3-dihydro-1H-benzo[d]imidazol-1-yl)piperidine-2,6-dione]",1.1 nM,
"CNc1ccc(-c2ccnc3c2cc([C@H](C)N2CCC(c4ccc(C(=O)N5CCC(CN6CCN(Cc7cc8c(cc7F)n([C@H]7CCC(=O)NC7=O)c(=O)n8C)C[C@@H]6C)CC5)cc4)CC2)n3C)cn1 [Example 3h23, (S)-3-(6-fluoro-3-methyl-5-(((S)-3-methyl-4-((1-(4-(1-((S)-1-(1-methyl-4-(6-(methylamino)pyridin-3-yl)-1H-pyrrolo[2,3-b]pyridin-2-yl)ethyl)piperidin-4-yl)benzoyl)piperidin-4-yl)methyl)piperazin-1-yl)methyl)-2-oxo-2,3-dihydro-1H-benzo[d]imidazol-1-yl)piperidine-2,6-dione]",1.5 nM,
"C[C@H]1CN(Cc2ccc3c(c2)n(C2CC2)c(=O)n3C2CCC(=O)N(C)C2=O)CCN1CC1CCN(C(=O)c2ccc(C3CCN([C@@H](C)c4cc5c(-c6ccc(N)nc6)ccnc5n4C)CC3)cc2)CC1 (stereo partly drawn) [Example 3h28, 3-(5-(((S)-4-((1-(4-(1-((S)-1-(4-(6-aminopyridin-3-yl)-1-methyl-1H-pyrrolo[2,3-b]pyridin-2-yl)ethyl)piperidin-4-yl)benzoyl)piperidin-4-yl)methyl)-3-methylpiperazin-1-yl)methyl)-3-cyclopropyl-2-oxo-2,3-dihydro-1H-benzo[d]imidazol-1-yl)-1-methylpiperidine-2,6-dione]",,20 to 30%

# Next, values leading:
DC50,Emax,SMILES
28.4 nM,,"CNc1ccc(-c2ccnc3c2cc([C@H](C)N2CC=C(c4c(C)cc(C(=O)N5CCC(CC6CCN(c7ccc8c(c7)C7(CC7)C(=O)N8C7CCC(=O)NC7=O)CC6)CC5)cc4F)CC2)n3C)cn1 (stereo partly drawn) [Example 3h8, 3-(5′-(4-((1-(3-fluoro-5-methyl-4-(1-((S)-1-(1-methyl-4-(6-(methylamino)pyridin-3-yl)-1H-pyrrolo[2,3-b]pyridin-2-yl)ethyl)-1,2,3,6-tetrahydropyridin-4-yl)benzoyl)piperidin-4-yl)methyl)piperidin-1-yl)-2′-oxospiro[cyclopropane-1,3′-indolin]-1′-yl)piperidine-2,6-dione]"
,40 to 50%,"CNc1ccc(-c2ccnc3c2cc([C@H](C)N2CC=C(c4c(C)cc(C(=O)N5CCC(CN6CCN(c7ccc8c(c7)C7(CC7)C(=O)N8C7CCC(=O)NC7=O)C[C@@H]6C)CC5)cc4F)CC2)n3C)cn1 (stereo partly drawn) [Example 3h19, 3-(5′-((S)-4-((1-(3-fluoro-5-methyl-4-(1-((S)-1-(1-methyl-4-(6-(methylamino)pyridin-3-yl)-1H-pyrrolo[2,3-b]pyridin-2-yl)ethyl)-1,2,3,6-tetrahydropyridin-4-yl)benzoyl)piperidin-4-yl)methyl)-3-methylpiperazin-1-yl)-2′-oxospiro[cyclopropane-1,3′-indolin]-1′-yl)piperidine-2,6-dione]"
1 nM,,"CNc1ccc(-c2ccnc3c2cc([C@H](C)N2CCC(c4ccc(C(=O)N5CCC(CN6CCN(Cc7cc8c(cc7F)n(C7CCC(=O)NC7=O)c(=O)n8C)C[C@@H]6C)CC5)cc4)CC2)n3C)cn1 (stereo partly drawn) [Example 3h21, 3-(6-fluoro-3-methyl-5-(((S)-3-methyl-4-((1-(4-(1-((S)-1-(1-methyl-4-(6-(methylamino)pyridin-3-yl)-1H-pyrrolo[2,3-b]pyridin-2-yl)ethyl)piperidin-4-yl)benzoyl)piperidin-4-yl)methyl)piperazin-1-yl)methyl)-2-oxo-2,3-dihydro-1H-benzo[d]imidazol-1-yl)piperidine-2,6-dione]"
0.9 nM,,"CNc1ccc(-c2ccnc3c2cc([C@H](C)N2CCC(c4ccc(C(=O)N5CCC(CN6CCN(Cc7cc8c(cc7F)n([C@@H]7CCC(=O)NC7=O)c(=O)n8C)C[C@@H]6C)CC5)cc4)CC2)n3C)cn1 [Example 3h22, (R)-3-(6-fluoro-3-methyl-5-(((S)-3-methyl-4-((1-(4-(1-((S)-1-(1-methyl-4-(6-(methylamino)pyridin-3-yl)-1H-pyrrolo[2,3-b]pyridin-2-yl)ethyl)piperidin-4-yl)benzoyl)piperidin-4-yl)methyl)piperazin-1-yl)methyl)-2-oxo-2,3-dihydro-1H-benzo[d]imidazol-1-yl)piperidine-2,6-dione]"
